Experimental findings from the supplement of paper PMC10627819 are described below.

Common to all, as to experiment: Bliss interaction score (quartile over a dose matrix) (fitness difference); higher = more antagonism (negative = synergy)
One test has as its system S. aureus Newman. Summed up:
(§1)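 Growth in each well was taken as OD595 at entry into stationary phase. Dividing by the plate's robust no-drug mean and capping at 1 gave fitness, and single-drug fitness was inferred from the combination data. The Bliss score, observed minus product-expected fitness, is summarised by quartiles over technical, biological and donor/recipient replicates.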

In the next test the test system is B. subtilis 168. Summed up:
as §1

A further test concerns S. aureus DSM 20231. An outline of the steps:
as §1

The subject of a further test is S. pneumoniae D39V. Summed up:
as §1
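Further: first quartile when negative (synergy) and third quartile when positive (antagonism).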

As for `CO/N=C(\C(=O)N[C@@H]1C(=O)N2C(C(=O)[O-])=C(C[N+]3(C)CCCC3)CS[C@H]12)c1csc(N)n1` [Cefepime] + CN[C@H](CC(C)C)C(=O)N[C@H]1C(=O)N[C@@H](CC(N)=O)C(=O)N[C@H]2C(=O)N[C@H]3C(=O)N[C@H](C(=O)N[C@H](C(=O)O)c4cc(O)cc(O)c4-c4cc3ccc4O)[C@H](O[C@H]3C[C@](C)(N)[C@@H](O)[C@H](C)O3)c3ccc(c(Cl)c3)Oc3cc2cc(c3O[C@@H]2O[C@H](CO)[C@@H](O)[C@H](O)[C@H]2O[C@H]2C[C@](C)(NCc3ccc(-c4ccc(Cl)cc4)cc3)[C@@H](O)[C@H](C)O2)Oc2ccc(cc2Cl)[C@H]1O [Oritavancin], the Bliss interaction score in the test with S. aureus Newman was 0.0749; in the test on B. subtilis 168, 0.0342; with S. aureus DSM 20231 it was 0.0977; in the test with S. pneumoniae D39V it was -0.0811.

On to `CO/N=C(\C(=O)N[C@@H]1C(=O)N2C(C(=O)[O-])=C(C[N+]3(C)CCCC3)CS[C@H]12)c1csc(N)n1` [Cefepime] + CO/N=C(\C(=O)N[C@@H]1C(=O)N2C(C(=O)O)=C(COC(C)=O)CS[C@H]12)c1csc(N)n1 [Cefotaxime], for which the Bliss interaction score is 0.0764 in the test on S. aureus Newman, 0.0354 in the test with B. subtilis 168, 0.0767 in the test on S. aureus DSM 20231 and 0.0698 in the test with S. pneumoniae D39V.

As to `CO/N=C(\C(=O)N[C@@H]1C(=O)N2C(C(=O)[O-])=C(C[N+]3(C)CCCC3)CS[C@H]12)c1csc(N)n1` [Cefepime] + CO/N=C(\C(=O)N[C@@H]1C(=O)N2C(C(=O)O)=C(COC(N)=O)CS[C@H]12)c1ccco1 [Cefuroxime], the Bliss interaction score with S. aureus Newman was 0.0741; with B. subtilis 168, -0.0417; in the test on S. aureus DSM 20231, 0.0866; with S. pneumoniae D39V, -0.0435.

As to `CO/N=C(\C(=O)N[C@@H]1C(=O)N2C(C(=O)[O-])=C(C[N+]3(C)CCCC3)CS[C@H]12)c1csc(N)n1` [Cefepime] + CO[C@@H]1[C@@H](OC(N)=O)[C@@H](O)[C@H](Oc2ccc3c(O)c(NC(=O)c4ccc(O)c(CC=C(C)C)c4)c(=O)oc3c2C)OC1(C)C [Novobiocin], the Bliss interaction score was 0.0516 with S. aureus Newman, -0.104 in the test on B. subtilis 168, 0.0654 in the test on S. aureus DSM 20231 and -0.098 with S. pneumoniae D39V.

Consider `CO/N=C(\C(=O)N[C@@H]1C(=O)N2C(C(=O)[O-])=C(C[N+]3(C)CCCC3)CS[C@H]12)c1csc(N)n1` [Cefepime] + CO[C@@]12[C@H](COC(N)=O)C3=C(C(=O)C(C)=C(N)C3=O)N1C[C@@H]1N[C@@H]12 [MitomycinC], for which the Bliss interaction score in the test with S. aureus Newman was 0.0543; with B. subtilis 168, -0.153; in the test on S. aureus DSM 20231, -0.0534; in the test with S. pneumoniae D39V, 0.125.

Consider `CO/N=C(\C(=O)N[C@@H]1C(=O)N2C(C(=O)[O-])=C(C[N+]3(C)CCCC3)CS[C@H]12)c1csc(N)n1` [Cefepime] + COc1cccc2c1C(=O)c1c(O)c3c(c(O)c1C2=O)C[C@@](O)(C(=O)CO)C[C@@H]3O[C@H]1C[C@H](N)[C@H](O)[C@H](C)O1 [Doxorubicin], for which the Bliss interaction score is -0.0429 in the test with S. aureus Newman, -0.239 in the test with B. subtilis 168, -0.1 with S. aureus DSM 20231 and 0.0847 with S. pneumoniae D39V.

`CO/N=C(\C(=O)N[C@@H]1C(=O)N2C(C(=O)[O-])=C(C[N+]3(C)CCCC3)CS[C@H]12)c1csc(N)n1` [Cefepime] + C[C@H]1c2cccc(O)c2C(=O)C2=C(O)[C@]3(O)C(=O)C(C(N)=O)=C(O)[C@@H](N(C)C)[C@@H]3[C@@H](O)[C@@H]21 [Doxycycline]: the Bliss interaction score stood at 0.0446 in the test with S. aureus Newman, 0.0669 in the test with B. subtilis 168, 0.119 in the test on S. aureus DSM 20231 and 0.203 in the test on S. pneumoniae D39V.

With `CO/N=C(\C(=O)N[C@@H]1C(=O)N2C(C(=O)[O-])=C(C[N+]3(C)CCCC3)CS[C@H]12)c1csc(N)n1` [Cefepime] + N[C@@H]1CONC1=O [CycloserineD], the Bliss interaction score in the test with S. aureus Newman was -0.0561; in the test with B. subtilis 168, 0.0718; in the test on S. aureus DSM 20231 it was 0.0932; with S. pneumoniae D39V, 0.0926.

With `CO/N=C(\C(=O)N[C@@H]1C(=O)N2C(C(=O)[O-])=C(C[N+]3(C)CCCC3)CS[C@H]12)c1csc(N)n1` [Cefepime] + O=C(N[C@H](CO)[C@H](O)c1ccc([N+](=O)[O-])cc1)C(Cl)Cl [Chloramphenicol], the Bliss interaction score in the test with S. aureus Newman amounted to 0.0591; in the test on B. subtilis 168, 0.109; in the test with S. aureus DSM 20231 it was 0.158; with S. pneumoniae D39V, 0.149.

Consider `CO/N=C(\C(=O)N[C@@H]1C(=O)N2C(C(=O)[O-])=C(C[N+]3(C)CCCC3)CS[C@H]12)c1csc(N)n1` [Cefepime] + O=C(O)[C@H]1/C(=C/CO)O[C@@H]2CC(=O)N21 [Clavulanic], for which the Bliss interaction score with S. aureus Newman is 0.0605; in the test on B. subtilis 168 it was -0.0808; with S. aureus DSM 20231 it was 0.0843; with S. pneumoniae D39V, -0.0597.

Take `CO/N=C(\C(=O)N[C@@H]1C(=O)N2C(C(=O)[O-])=C(C[N+]3(C)CCCC3)CS[C@H]12)c1csc(N)n1` [Cefepime] + O=C(O)c1cn(C2CC2)c2cc(N3CCNCC3)c(F)cc2c1=O [Ciprofloxacin]: the Bliss interaction score with S. aureus Newman was 0.0601; with B. subtilis 168, -0.193; in the test with S. aureus DSM 20231 it was -0.0463; in the test on S. pneumoniae D39V it was 0.147.
